Results on one compound are retold here after paper PMC11165448, “Biocatalytic Heteroaromatic Amide Formation in Water Enabled by a Catalytic Tetrad and Two Access Tunnels” (ACS Catalysis, 2024).

The structures appear in SMILES notation.

This assay deals with T1, acyltransferase from M. smegmatis (MsAcT) (Mycolicibacterium smegmatis, UniProt A0R5U7).
T1 construct: gene MSMEG_6317; His6-tagged, expressed in Escherichia coli, cell-free extract
The experiment in a line: amide formation screen with cell-free extract. The class given is cell-based. The following applies: co-substrate benzylamine 20 mM; ester 20 mM; buffer, 30 C.

T1 sequence (A0R5U7 entry or part of it): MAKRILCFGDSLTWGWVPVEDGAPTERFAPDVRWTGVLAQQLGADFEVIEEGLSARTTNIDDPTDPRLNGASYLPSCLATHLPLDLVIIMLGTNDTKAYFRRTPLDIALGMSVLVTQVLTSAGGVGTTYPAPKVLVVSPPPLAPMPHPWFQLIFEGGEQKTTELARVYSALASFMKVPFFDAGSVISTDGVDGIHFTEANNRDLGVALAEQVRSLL

Turning to `CCOC(=O)c1ccco1` [1e, ethyl 2-furoate], the “amide formation screen with cell-free extract” value was “MsAcT and variants displayed activity with ethyl 2-furoate 1e”.
